From patent US10696671B2, “Imidazo[1,2-A]pyridine derivatives, methods for preparing the same and use thereof” (Jeil Pharmaceutical Co., Ltd., priority 2016, dated 2020)
pIC50: −log10 of the molar value.

Columns and labels:
[1] = system: histamine-stimulated gastric acid secretion; assay: Inhibitory effects against histamine-stimulated gastric acid secretion in pylorus-ligated rats (Shay's rat models); format: in vivo, Sprague-Dawley (SD) rats; conditions: percent inhibition of total acid output vs control, 2 mg/kg oral 1 hour before pylorus ligation, histamine 30 mg/kg s.c., 3 hours after ligation
Protocol: Test Example 4: Inhibitory Effects against Histamine-Stimulated Gastric Acid Secretion in Pylorus-Ligated Rats The inhibitory effects of the compounds of the present disclosure against histamine-stimulated gastric acid secretion were evaluated using Shay's rat models [Shay H, et al. A simple method for the uniform production of gastric ulceration in the rat, Gastroenterology, 1945, 5, 43-61]. Male Sprague-Dawley (SD) rats (weighing 180-210 g) were divided into X groups (n=7) and fasted with only water access for 24 hours. At 1 hour before pylorus ligation, the control group was administered orally with only 10% DMSO, 10% Cremophor EL and 80% water, and the other groups were administered orally with 2 mg/kg/2 ml of each compound together with 10% DMSO, 10% Cremophor EL and 80% water. The abdominal cavity of each rate was incised under isoflurane anesthesia, and the pylorus was ligated. Immediately after ligation, histamine 2HCl was administered subcutaneously to each rat at a dose of 30 mg/kg/10 ml. At 3 hours after ligation, the test animals were euthanized, and the gastric content was extracted. The extracted gastric content was centrifuged at 3,000×g for 10 minutes, and the supernatant was collected to obtain gastric juice. Next, the acidity of the gastric juice was determined based on the volume of (ueq/ml) of 0.1 N—NaOH required for automatic titration of the gastric juice to pH 7.0, and the acidity of the gastric juice was multiplied by the amount of the gastric juice to determine total acid output. Percent (%) inhibitory activity of test compounds={(total acid output in control group−total acid output in group treated with test compound)/total acid output in control group}×100.

[2] = system: esophageal injury in reflux esophagitis models; assay: Inhibitory effects against esophageal injury in reflux esophagitis models; format: in vivo, Sprague Dawley (SD) rats; conditions: Rattus norvegicus; percent inhibition of esophageal injury area vs control; rats, 2 mg/kg oral 1 hour before ligation, measured 6 hours after ligation; read-out: GERD (rat/mpk)
Protocol: Test Example 3: Inhibitory Effects against Esophageal Injury in Reflux Esophagitis Models The inhibitory effects of the compounds of the present disclosure against esophageal injury in reflux esophagitis models were evaluated according to the method of Nakamura [Nakamura K, et al., Effects of sodium polyacrylate (PANa) on acute esophagitis by gastric juice in rats, Jpn J Pharmacology, 1982, 32, 445-56]. Male Sprague Dawley (SD) rats (weighing 180-210 g) were divided into X groups (n=6) and fasted without water for 24 hours. Then, the control group was administered orally with only 10% DMSO, 10% Cremophor EL and 80% water, and the other groups were administered orally with 2 mg/kg/2 ml of each test compound together with 10% DMSO, 10% Cremophor EL and 80% water. At 1 hour after administration of the excipients and each compound, the abdominal cavity of each rate was incised under isoflurane anesthesia, and the pylorus was ligated, and the boundary between the anterior portion and the body was also ligated. At 6 hours after ligation, the test animals were euthanized, and the esophagus ranging from the thyroid to the cardiac portion was carefully extracted. The extracted esophagus was incised in a longitudinal direction and spread so as to expose the mucosa and was then fixed, after which the area of esophageal injury was measured. Percent (%) inhibitory activity of test compounds={(total esophageal injury area of control group−esophageal injury area of group treated with test compound)/total esophageal injury area of control group}×100.

[3] = molecular target: T1, proton pump (H+/K+-ATPase), porcine gastric vesicles (Sus scrofa, UniProt P19156); assay: Inhibitory effects against proton pump (H+/K+-ATPase) activity, malachite green phosphate assay; format: biochemical; conditions: pH 6.4, 37° C., K+-dependent activity
T1 construct: reaction buffer (50 mmol/L Tris-Hepes buffer, pH 6.4) containing porcine gastric vesicles; from tissue; host or cells: porcine gastric mucosa (gastric vesicles prepared by centrifugation)
T1 sequence (P19156 2-1034 limits assumed): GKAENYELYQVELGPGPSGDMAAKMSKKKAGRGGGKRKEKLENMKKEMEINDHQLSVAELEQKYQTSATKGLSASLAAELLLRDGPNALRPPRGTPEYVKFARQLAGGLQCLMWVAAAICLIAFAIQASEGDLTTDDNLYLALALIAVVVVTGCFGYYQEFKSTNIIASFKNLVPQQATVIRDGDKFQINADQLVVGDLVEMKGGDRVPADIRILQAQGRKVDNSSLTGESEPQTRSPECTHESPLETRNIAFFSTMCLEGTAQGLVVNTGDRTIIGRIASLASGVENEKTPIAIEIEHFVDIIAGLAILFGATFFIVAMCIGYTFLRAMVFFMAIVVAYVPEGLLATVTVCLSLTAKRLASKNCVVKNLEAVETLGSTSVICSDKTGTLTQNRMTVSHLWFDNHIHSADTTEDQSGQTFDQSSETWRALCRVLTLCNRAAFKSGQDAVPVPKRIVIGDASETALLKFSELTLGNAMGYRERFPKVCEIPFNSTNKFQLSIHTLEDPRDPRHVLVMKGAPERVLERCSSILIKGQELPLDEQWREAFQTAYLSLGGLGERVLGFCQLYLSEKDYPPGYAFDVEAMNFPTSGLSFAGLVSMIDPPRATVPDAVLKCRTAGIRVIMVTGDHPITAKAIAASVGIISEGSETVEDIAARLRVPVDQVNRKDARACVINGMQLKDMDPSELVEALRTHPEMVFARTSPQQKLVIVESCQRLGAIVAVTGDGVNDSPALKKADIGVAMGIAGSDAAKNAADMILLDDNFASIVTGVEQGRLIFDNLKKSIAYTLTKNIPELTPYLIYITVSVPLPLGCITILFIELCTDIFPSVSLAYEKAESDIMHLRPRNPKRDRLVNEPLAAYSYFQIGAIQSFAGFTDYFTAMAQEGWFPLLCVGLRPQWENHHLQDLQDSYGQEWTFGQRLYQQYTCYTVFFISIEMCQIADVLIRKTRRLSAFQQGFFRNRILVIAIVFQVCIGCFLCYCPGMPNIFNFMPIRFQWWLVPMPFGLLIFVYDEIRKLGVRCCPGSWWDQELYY
T1 sequence (P18434 whole entry partner): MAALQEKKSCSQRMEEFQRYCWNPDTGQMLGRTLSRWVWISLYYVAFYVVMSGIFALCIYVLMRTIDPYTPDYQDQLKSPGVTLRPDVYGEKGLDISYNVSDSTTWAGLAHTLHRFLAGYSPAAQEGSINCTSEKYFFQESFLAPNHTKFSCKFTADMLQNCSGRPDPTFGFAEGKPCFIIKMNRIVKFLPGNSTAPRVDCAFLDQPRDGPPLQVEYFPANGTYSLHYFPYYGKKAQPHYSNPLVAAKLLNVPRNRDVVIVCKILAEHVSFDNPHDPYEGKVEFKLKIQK
Protocol: Test Example 1: Preparation of Gastric Vesicles
Gastric vesicles used in the experiment were prepared by separation from porcine gastric mucosa according to a centrifugation method [Saccomani G, et al., A Nonelectrogenic H^+ Pump in Plasma Membranes of Hog Stomach, J Biol Chem., 1976, 251 (23), 7690-8]. Next, the protein content of the gastric vesicles was quantified using a bicinchoninic acid kit [Smith P K, et al., Measurement of protein using bicinchoninic acid, Anal Biochem., 1985, 150 (1), 76-85)].
Test Example 2: Measurement of Inhibitory Effects Against Proton Pump (H^+/K^+-ATPase) Activity
The inhibitory effects of the compounds against proton pump activity were calculated based on the pump activity determined in the presence of K^+ ions excluding the pump activity determined in the absence of K^+ ions. The inhibitory effects against proton pump activity were measured in 96-well plates, and all reactions were performed with a reaction volume of […] at 37° C. Specifically, 10 μm of valinomycin and each concentration of each compound were pre-incubated in a reaction buffer (50 mmol/L Tris-Hepes buffer, pH 6.4) containing porcine gastric vesicles for 15 minutes. For negative and positive control groups, 1% DMSO was added to buffer, and for test groups, 1% DMSO and a dilution of each concentration of each compound were added. Next, 0.2 mmol/L of adenosine triphosphate (ATP) was added to the reaction buffer and incubated at 37° C. for 40 minutes. After completion of the incubation, a malachite green solution was added to the reaction buffer and incubated for 30 minutes, and the amount of inorganic phosphate in the reaction buffer was measured by colorimetry using a malachite green phosphate assay Kit (Bioassay Systems). For colorimetry, the OD (optical density) at 620 nm was measured using a microplate reader [Synergy H4, hybrid multimode microplate reader, BioTek]. The percent inhibition of proton pump (H^+/K^+-ATPase) was determined based on the OD value of the control group and the OD values of various concentrations of the test compounds, and the IC50 of each test compound was calculated using the Logistic 4-parameter function of Sigmaplot 8.0 program.

Row | Compound | acid output (rat/2 mpk) [1] [%] | inhibition in vivo at 2 mg/kg [2] [%] | pIC50 [3]
1 | Cc1cccc(C)c1CNc1cc(C(=O)N2CC(O)C2)cn2c(C)c(C)nc12 [Example 1, {8-[(2,6-Dimethylbenzyl)amino]-2,3-dimethylimidazo[1,2-α]pyridin-6-yl}(3-hydroxyazetidin-1-yl)methanone] | 71 | 84 | 7.70
2 | Cc1cccc(C)c1CNc1cc(C(=O)N2CCC2)cn2c(C)c(C)nc12 [Example 6, azetidin-1-yl{8-[(2,6-dimethylbenzyl)amino]-2,3-dimethylimidazo[1,2-α]pyridin-6-yl}methanone] | 94 | 100 | 7.77
3 | Cc1cccc(C)c1CNc1cc(C(=O)N2CC(F)C2)cn2c(C)c(C)nc12 [Example 7, {8-[(2,6-dimethylbenzyl)amino]-2,3-dimethylimidazo[1,2-a]pyridin-6-yl}(3-fluoroazetidin-1-yl)methanone] | 91 | 100 | 7.26
4 | Cc1cccc(C)c1CNc1cc(C(=O)N2CC(C)C2)cn2c(C)c(C)nc12 [Example 8, {8-[(2,6-dimethylbenzyl)amino]-2,3-dimethylimidazo[1,2-α]pyridin-6-yl}(3-methylazetidin-1-yl)methanone] | – | 95.4 | 7.02
5 | Cc1cccc(C)c1CNc1cc(C(=O)N2CC(C)(O)C2)cn2c(C)c(C)nc12 [Example 9, {8-[(2,6-dimethylbenzyl)amino]-2,3-dimethylimidazo[1,2-α]pyridin-6-yl}(3-hydroxy-3-methylazetidin-1-yl)methanone] | – | 77.2 | 7.16
6 | Cc1cccc(C)c1CNc1cc(C(=O)N2CC(CO)C2)cn2c(C)c(C)nc12 [Example 11, {8-[(2,6-dimethylbenzyl)amino]-2,3-dimethylimidazo[1,2-α]pyridin-6-yl}[3-(hydroxymethyl)azetidin-1-yl]methanone] | 78 | 97.6 | 7.41
7 | Cc1cc(F)ccc1CNc1cc(C(=O)N2CC(CO)C2)cn2c(C)c(C)nc12 [Example 33, {8-[(4-fluoro-2-methylbenzyl)amino]-2,3-dimethylimidazo[1,2-α]pyridin-6-yl}(3-(hydroxymethyl)azetidin-1-yl)methanone] | – | 92.7 | 6.84
8 | Cc1cc(F)cc(C)c1CNc1cc(C(=O)N2CC(O)C2)cn2c(C)c(C)nc12 [Example 34, {8-[(4-fluoro-2,6-dimethylbenzyl)amino]-2,3-dimethylimidazo[1,2-α]pyridin-6-yl}(3-hydroxyazetidin-1-yl)methanone] | – | 91.4 | 7.55
9 | Cc1cc(F)cc(C)c1CNc1cc(C(=O)N2CC(F)C2)cn2c(C)c(C)nc12 [Example 36, {8-[(4-fluoro-2,6-dimethylbenzyl)amino]-2,3-dimethylimidazo[1,2-α]pyridin-6-yl}(3-fluoroazetidin-1-yl)methanone] | – | 98.2 | 7.54
10 | Cc1cc(F)cc(C)c1CNc1cc(C(=O)N2CC(CO)C2)cn2c(C)c(C)nc12 [Example 39, {8-[(4-fluoro-2,6-dimethylbenzyl)amino]-2,3-dimethylimidazo[1,2-α]pyridin-6-yl}[3-(hydroxymethyl)azetidin-1-yl]methanone] | – | 98.4 | 7.62
11 | Cc1ccc(F)c(C)c1CNc1cc(C(=O)N2CC(CO)C2)cn2c(C)c(C)nc12 [Example 44, {8-[(3-fluoro-2,6-dimethylbenzyl)amino]-2,3-dimethylimidazo[1,2-α]pyridin-6-yl}[3-(hydroxymethyl)azetidin-1-yl]methanone] | – | – | 7.21
12 | Cc1ccc(Cl)c(C)c1CNc1cc(C(=O)N2CCC2)cn2c(C)c(C)nc12 [Example 45, azetidin-1-yl{8-[(3-chloro-2,6-dimethylbenzyl)amino]-2,3-dimethylimidazo[1,2-α]pyridin-6-yl}methanone] | – | – | 7.09
13 | Cc1ccc(Cl)c(C)c1CNc1cc(C(=O)N2CC(O)C2)cn2c(C)c(C)nc12 [Example 46] | – | – | 6.79
14 | Cc1ccc(Cl)c(C)c1CNc1cc(C(=O)N2CC(F)C2)cn2c(C)c(C)nc12 [Example 47, {8-[(3-chloro-2,6-dimethylbenzyl)amino]-2,3-dimethylimidazo[1,2-α]pyridin-6-yl}(3-fluoroazetidin-1-yl)methanone] | – | – | 6.20
15 | Cc1ccc(Cl)c(C)c1CNc1cc(C(=O)N2CC(CO)C2)cn2c(C)c(C)nc12 [Example 48, {8-[(3-chloro-2,6-dimethylbenzyl)amino]-2,3-dimethylimidazo[1,2-α]pyridin-6-yl}[3-(hydroxymethyl)azetidin-1-yl]methanone] | – | – | 6.99
